Laboratory results taken from the supplement of paper PMC9938120.

Legend:
Assay in all cases: drug sensitivity score (DSS3, normalised partial AUC of % inhibition dose-response) (DSS (score)); higher = more sensitive (stronger inhibition of viability); extreme values may be limits of the assay
FMOC25_2 = patient-derived low-grade serous ovarian cancer cells; settings: 72 h; library: FO5A; assay format: 2D, 384-well, CellTiter-Glo
Procedure, shortened: (§1)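 The drug sensitivity score is calculated as a partial area under the percent-inhibition dose-response curve, divided by the log of the upper asymptote; higher scores mean more sensitive. For this score, early-passage (under 10) patient-derived ovarian cancer cells were exposed on 384-well flat clear-bottom plates to compounds at five concentrations across a 10,000-fold range for 72 h at 37 °C, 5% CO2. Viability was read with CellTiter-Glo and processed in Breeze.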

FMOC02_2 = patient-derived low-grade serous ovarian cancer cells; settings: 72 h; library: FO5A; assay format: 2D, 384-well, CellTiter-Glo
Procedure, shortened: as §1

FMOC22 = patient-derived mucinous ovarian cancer cells; settings: 72 h; library: FO5A; assay format: 2D, 384-well, CellTiter-Glo
Procedure, shortened: as §1

FMOC27 = patient-derived low-grade serous ovarian cancer cells; settings: 72 h; library: FO5A; assay format: 2D, 384-well, CellTiter-Glo
Procedure, shortened: as §1

FMOC11 = patient-derived high-grade serous ovarian cancer cells; settings: 72 h; library: FO5A; assay format: 2D, 384-well, CellTiter-Glo
Procedure, shortened: as §1

FMOC28 = patient-derived low-grade serous ovarian cancer cells; settings: 72 h; library: FO5A; assay format: 2D, 384-well, CellTiter-Glo
Procedure, shortened: as §1

FMOC02_3 = patient-derived low-grade serous ovarian cancer cells; settings: 72 h; library: FO5A; assay format: 2D, 384-well, CellTiter-Glo
Procedure, shortened: as §1

FMOC25_1 = patient-derived low-grade serous ovarian cancer cells; settings: 72 h; library: FO4B; assay format: 2D, 384-well, CellTiter-Glo
Procedure, shortened: as §1

FMOC09 = patient-derived high-grade serous ovarian cancer cells; settings: 72 h; library: FO5A; assay format: 2D, 384-well, CellTiter-Glo
Procedure, shortened: as §1

FMOC14 = patient-derived high-grade serous ovarian cancer cells; settings: 72 h; library: FO5A; assay format: 2D, 384-well, CellTiter-Glo
Procedure, shortened: as §1

FMOC04 = patient-derived high-grade serous ovarian cancer cells; settings: 72 h; library: FO5A; assay format: 2D, 384-well, CellTiter-Glo
Procedure, shortened: as §1

FMOC06 = patient-derived mucinous ovarian cancer cells; settings: 72 h; library: FO5A; assay format: 2D, 384-well, CellTiter-Glo
Procedure, shortened: as §1

FMOC17 = patient-derived low-grade serous ovarian cancer cells; settings: 72 h; library: FO5A; assay format: 2D, 384-well, CellTiter-Glo
Procedure, shortened: as §1

FMOC24 = patient-derived high-grade serous ovarian cancer cells; settings: 72 h; library: FO5A; assay format: 2D, 384-well, CellTiter-Glo
Procedure, shortened: as §1

FMOC02_1 = patient-derived low-grade serous ovarian cancer cells; settings: 72 h; library: FO5A; assay format: 2D, 384-well, CellTiter-Glo
Procedure, shortened: as §1

FMOC03 = patient-derived mucinous ovarian cancer cells; settings: 72 h; library: FO5A; assay format: 2D, 384-well, CellTiter-Glo
Procedure, shortened: as §1

Row | SMILES | drug sensitivity score (FMOC25_2) | drug sensitivity score (FMOC02_2) | drug sensitivity score (FMOC22) | drug sensitivity score (FMOC27) | drug sensitivity score (FMOC11) | drug sensitivity score (FMOC28) | drug sensitivity score (FMOC02_3) | drug sensitivity score (FMOC25_1) | drug sensitivity score (FMOC09) | drug sensitivity score (FMOC14) | drug sensitivity score (FMOC04) | drug sensitivity score (FMOC06) | drug sensitivity score (FMOC17) | drug sensitivity score (FMOC24) | drug sensitivity score (FMOC02_1) | drug sensitivity score (FMOC03)
1 | COc1ccc(Cn2ccc3ccc(C(=O)NO)cc32)cc1 | 2.5 | 3.4 | 0.4 | 0.2 | 0.6 | 4.9 | 1.8 | 0.8 | 1.1 | 1.1 | 0 | 0.2 | 1.4 | 0.4 | 1 | 1.1
2 | Cc1nc(NC(=O)N2CCC[C@H]2C(N)=O)sc1-c1ccnc(C(C)(C)C(F)(F)F)c1 [Alpelisib] | 4.8 | 5.7 | 0.7 | 0.2 | 1.4 | 5.9 | 6.5 | 4.7 | 4.3 | 0 | 0.9 | 4.1 | 1.9 | 0.35 | 5.3 | 2.3
3 | CC(C)C(=O)Nc1ccc([N+](=O)[O-])c(C(F)(F)F)c1 [Flutamide] | 0 | 0 | 0 | 0 | 0 | 0 | 0 | 0 | 0 | 0 | 0.05 | 0 | 0 | 2.1 | 0 | 0
4 | Cn1cc(-c2cnn3c(N)c(Br)c([C@@H]4CCCNC4)nc23)cn1 [MK-8776] | 2.8 | 0 | 0 | 0 | 2.4 | 2.5 | 1.5 | 1.4 | 0 | 0.9 | 2.45 | 0 | 0.6 | 0.3 | 2 | 0
5 | Cc1cnc(NC(=O)Nc2cc(Br)c(C)cc2OC[C@@H]2CNCCO2)cn1 [Rabusertib] | 2 | 0 | 0 | 0 | 2 | 0 | 0.8 | 1 | 0 | 3.8 | 1.7 | 0.2 | 1.1 | 3.6 | 2.2 | 0
6 | Cc1ccc(Nc2nccc(N(C)c3ccc4c(C)n(C)nc4c3)n2)cc1S(N)(=O)=O [Pazopanib] | 3 | 0.4 | 0 | 0.6 | 0 | 0 | 1.5 | 1.1 | 0 | 0 | 0 | 0 | 0 | 3.8 | 1.3 | 0
7 | O=c1[nH]cc(F)c(=O)[nH]1 [Fluorouracil] | 4.3 | 1.8 | 2.2 | 0 | 0 | 1.2 | 3.6 | 3.1 | 0 | 0 | 2.65 | 0 | 1 | 0.1 | 2.3 | 0
